Source: patent US9000043B2, “Phenoxyethoxy compounds” (Eli Lilly and Company, priority 2013, dated 2015)

How the values were obtained:
[1] = biological target: human EP1 (Homo sapiens (Human), UniProt P34995); assay: In vitro binding to human EP1 ([3H]-PGE2 displacement, membranes); details: HEK293 membranes, [3H]-PGE2, n = 1; read-out: hEP1, Ki
Description: (§1) hEP1 and hEP4 membranes are prepared from recombinant HEK293 cells stably expressing the human EP1 (Genbank accession number AY275470) or EP4 (Genbank accession number AY429109) receptors. hEP2 and hEP3 membranes are prepared from HEK293 cells transiently transfected with EP2 (Genbank accession number AY275471) or EP3 (isoform VI: Genbank accession number AY429108) receptor plasmids. Frozen cell pellets are homogenized in homogenization buffer using a Teflon/glass homogenizer. Membrane protein is aliquoted and quick frozen on dry ice prior to storage at −80° C. Homogenization buffer contained 10 mM Tris-HCl, pH 7.4, 250 mM sucrose, 1 mM EDTA, 0.3 mM indomethacin and plus Complete™, with EDTA, obtained from Roche Molecular Biochemicals (Catalog Number 1 697 498).
(§2) Kd values for [3]H-PGE2 binding to each receptor are determined by saturation binding studies or homologous competition. […] Nonspecific binding is calculated by comparing binding in the presence and absence of 2 μM of PGE2. The membranes are harvested by filtration (TomTek harvester), washed 4 times with cold buffer (10 mM MES pH 6.0 with KOH, 10 mM MgCl2), dried in a 60° C. oven, and the radioactivity is quantified as counts per minute (CPM) using a TopCount detector. Percent specific binding is calculated as the percent of the binding in the absence of any inhibitor, corrected for binding in the presence of 2 μM of PGE2. […]

[2] = biological target: T1, human EP4 (Homo sapiens (Human), UniProt P35408); assay: In vitro binding to human EP4 ([3H]-PGE2 displacement, membranes); details: HEK293 membranes, [3H]-PGE2, n = 3; read-out: hEP4, Ki
Description: as §1, §2
Target sequence in this assay (P35408 whole entry, looked up): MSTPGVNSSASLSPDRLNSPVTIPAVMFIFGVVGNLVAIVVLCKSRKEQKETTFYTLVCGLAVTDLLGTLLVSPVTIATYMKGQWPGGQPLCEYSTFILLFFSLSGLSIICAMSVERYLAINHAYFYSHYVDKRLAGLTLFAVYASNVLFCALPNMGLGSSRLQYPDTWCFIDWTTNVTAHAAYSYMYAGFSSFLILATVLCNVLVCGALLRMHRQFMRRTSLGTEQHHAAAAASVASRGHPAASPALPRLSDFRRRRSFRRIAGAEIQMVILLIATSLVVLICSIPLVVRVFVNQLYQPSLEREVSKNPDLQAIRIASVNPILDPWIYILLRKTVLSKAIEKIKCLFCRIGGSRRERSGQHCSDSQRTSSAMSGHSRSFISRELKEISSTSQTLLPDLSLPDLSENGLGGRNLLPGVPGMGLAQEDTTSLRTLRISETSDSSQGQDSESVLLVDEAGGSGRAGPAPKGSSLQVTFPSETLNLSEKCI

[3] = biological target: T1, human EP4; assay: In vitro antagonist activity in human whole blood (reversal of PGE2 inhibition of LPS-induced TNFα production); format: cell-based; details: LPS 10 μg/mL with 10 nM PGE2, geometric mean±SD, n=11, read-out: IC50 in human blood TNFα induction assay
Description: The inhibitory effects of PGE2 on LPS-induced TNFα production from macrophages/monocytes are believed to be mediated by EP4 receptors (See Murase, A., et al., Life Sciences, 82:226-232 (2008)). The ability of the compound of Example 1 to reverse the inhibitory effect of PGE2 on LPS-induced TNFα production in human whole blood is an indicia of functional activity.
Blood is collected from normal volunteer donors into sodium heparin vacutainer tubes. Donors have not taken NSAIDs or celecoxib within 48 hours or glucocorticoids within two weeks prior to the donation. All tubes/donor are pooled into 50 mL Falcon conical centrifuge tubes and 98 μL/well is distributed into 96-well tissue culture plates (Falcon 3072). […] TNFα levels in 2 μL plasma are quantified by a commercially available enzyme immunoassay (R&D Systems DY210), using Immulon 4 HBX plates (Thermo 3855) and 3,3′,5,5′ tetramethylbiphenyl-4,4′-diamine substrate (KPL 50-76-03). The plates are read at A450-A650 on a plate reader (Molecular Devices Versamax) using SOFTmaxPRO (v. 4.3.1) software. IC50s are calculated using Graphpad Prism (v. 4) nonlinear regression, with sigmoidal dose response curve fitting. Results are expressed as the geometric mean±standard deviation; n=number of independent determinations.
Target sequence in this assay (P35408 whole entry, looked up): as above

[4] = biological target: rat EP4 (Rattus norvegicus (Rat), UniProt P43114); assay: In vitro rat EP4 functional antagonist activity (PGE2-stimulated cAMP, HTRF); format: cell-based; details: HEK293 cells expressing rat EP4, PGE2 at EC80, n=1; read-out: IC50 measured at rat EP4 (inhibition of PGE2-stimulated cAMP)
Description: Rat EP4 cDNA (Genebank Accession# NM_03276) is cloned into pcDNA 3.1 vector and subsequently transfected in HEK293 cells for receptor expression. Rat EP4 stable clone is scaled up and then frozen down as cell bank for future compounds screening. To test EP4 antagonist compounds in rEP4 cells, thaw the frozen cells and then resuspend cells in cAMP assay buffer. The cAMP buffer is made by HBSS without Phenol Red (Hyclone, SH30268) supplemented with 20 mM HEPES (Hyclone, SH30237), 0.1% BSA (Gibco, 15260) and 125 μM IBMX (Sigma, 15879). The cells are plated into 96-well half area flat-bottom polystyrene black plates (Costar 3694). Compounds are serial diluted with DMSO to give 10-point concentration response curves. Then diluted compounds are added into cAMP assay buffer which contains PGE2 (Cayman 14010, in a concentration predetermined to produce an EC80) at ratio of DMSO/buffer at 1/100. The cells are treated with compounds in the presence of PGE2 (EC80 concentration) for 30 minutes at room temperature. The cAMP levels generated from the cells are quantified by a cAMP HTRF assay kit (Cisbio 62AM4PEC). The plates are read on an EnVision plate reader using HTRF optimized protocol (PerkinElmer). IC50s are calculated using Graphpad Prism (v. 4) nonlinear regression, sigmoidal dose response curve fitting.

[5] = biological target: human EP2 (Homo sapiens (Human), UniProt P43116); assay: In vitro binding to human EP2 ([3H]-PGE2 displacement, membranes); details: HEK293 membranes, [3H]-PGE2, n = 2; read-out: hEP2, Ki
Description: as §1, §2

[6] = biological target: T1, human EP4; assay: In vitro human EP4 functional antagonist activity (PGE2-stimulated cAMP, HTRF); format: cell-based; details: HEK293 cells expressing human EP4, PGE2 at EC80, n=5; read-out: IC50 measured at human EP4 (inhibition of PGE2-stimulated cAMP production)
Description: Assays are conducted in recombinant HEK293 cells stably expressing human EP4 receptor. The cell lines are maintained by culturing in DMEM with high glucose and pyridoxine hydrochloride (Invitrogen) supplemented with 10% fetal bovine serum (FBS), 1 mM sodium pyruvate, 10 mM HEPES, 500 μg/mL geneticin and 2 mM L-glutamine. Confluent cultures are grown at 37° C. in an atmosphere containing 5% CO2. Cells are harvested using 2.5% Trypsin-EDTA, suspended in freeze media (FBS with 6% DMSO) at 10^7 cells/mL and aliquots are stored in liquid nitrogen. Just before assay, cells are thawed in DMEM, centrifuged, and resuspended in cAMP buffer.
The inhibition of PGE2-stimulated cAMP production by EP4 antagonists is measured using HTRF (Cisbio catalogue #62AM4PEB). An aliquot equivalent to 4000 cells is incubated with 50 μL cAMP assay buffer containing PGE2 in a concentration predetermined to produce an EC80 (0.188 nM PGE2 from Sigma, catalog # P5640-10 mg) and EP4 antagonists at room temperature for 20 minutes. cAMP assay buffer contains 500 mL HBSS, 0.1% BSA, 20 mM HEPES and 200 μM IBMX (Sigma 15879). […] The HTRF signal is detected using an EnVision® plate reader (Perkin-Elmer) to calculate the ratio of fluorescence at 665 nm to that at 620 nm. […]
Target sequence in this assay (P35408 whole entry): as the sequence (P35408 whole entry, looked up) above

[7] = biological target: human EP3 (isoform VI) (Homo sapiens (Human), UniProt P43115); assay: In vitro binding to human EP3 ([3H]-PGE2 displacement, membranes); details: HEK293 membranes, [3H]-PGE2, n = 1; read-out: hEP3, Ki
Description: as §1, §2

Sequence of human EP3 (isoform VI) (P43115 other isoform, or with tags, fused parts or gaps): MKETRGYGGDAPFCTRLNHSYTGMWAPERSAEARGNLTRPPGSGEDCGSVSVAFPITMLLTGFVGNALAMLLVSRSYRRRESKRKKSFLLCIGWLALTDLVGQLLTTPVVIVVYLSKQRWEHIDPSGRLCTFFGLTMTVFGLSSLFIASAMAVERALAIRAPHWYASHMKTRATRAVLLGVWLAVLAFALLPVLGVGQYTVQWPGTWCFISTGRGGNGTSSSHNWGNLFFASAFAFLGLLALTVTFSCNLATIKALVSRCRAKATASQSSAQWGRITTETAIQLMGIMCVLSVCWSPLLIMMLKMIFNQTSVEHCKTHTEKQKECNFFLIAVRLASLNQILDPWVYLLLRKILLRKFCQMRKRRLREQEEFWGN
Sequence of rat EP4 (P43114 whole entry): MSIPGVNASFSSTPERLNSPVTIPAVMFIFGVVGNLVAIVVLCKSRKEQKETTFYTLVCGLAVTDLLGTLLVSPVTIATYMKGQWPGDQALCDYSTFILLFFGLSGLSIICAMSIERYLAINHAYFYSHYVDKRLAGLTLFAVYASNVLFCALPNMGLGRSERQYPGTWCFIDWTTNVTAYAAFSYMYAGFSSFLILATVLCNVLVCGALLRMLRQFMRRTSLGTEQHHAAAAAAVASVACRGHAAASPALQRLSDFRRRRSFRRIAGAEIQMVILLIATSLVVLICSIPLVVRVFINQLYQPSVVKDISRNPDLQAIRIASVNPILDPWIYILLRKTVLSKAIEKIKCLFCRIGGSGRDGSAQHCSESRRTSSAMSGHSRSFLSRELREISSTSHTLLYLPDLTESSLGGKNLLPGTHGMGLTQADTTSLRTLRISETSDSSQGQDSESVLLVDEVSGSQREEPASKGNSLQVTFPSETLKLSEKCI
Sequence of human EP2 (P43116 whole entry): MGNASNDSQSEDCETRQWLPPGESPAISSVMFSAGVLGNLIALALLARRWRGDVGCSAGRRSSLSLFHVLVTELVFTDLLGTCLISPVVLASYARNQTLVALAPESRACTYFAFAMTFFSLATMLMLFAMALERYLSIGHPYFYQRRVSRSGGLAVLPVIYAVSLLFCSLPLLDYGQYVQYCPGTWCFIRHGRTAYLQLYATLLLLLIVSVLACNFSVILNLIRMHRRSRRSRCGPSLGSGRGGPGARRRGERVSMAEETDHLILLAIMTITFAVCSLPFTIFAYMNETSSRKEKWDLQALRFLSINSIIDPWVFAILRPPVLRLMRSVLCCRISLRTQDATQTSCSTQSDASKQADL
Sequence of human EP1 (P34995 whole entry, canonical isoform): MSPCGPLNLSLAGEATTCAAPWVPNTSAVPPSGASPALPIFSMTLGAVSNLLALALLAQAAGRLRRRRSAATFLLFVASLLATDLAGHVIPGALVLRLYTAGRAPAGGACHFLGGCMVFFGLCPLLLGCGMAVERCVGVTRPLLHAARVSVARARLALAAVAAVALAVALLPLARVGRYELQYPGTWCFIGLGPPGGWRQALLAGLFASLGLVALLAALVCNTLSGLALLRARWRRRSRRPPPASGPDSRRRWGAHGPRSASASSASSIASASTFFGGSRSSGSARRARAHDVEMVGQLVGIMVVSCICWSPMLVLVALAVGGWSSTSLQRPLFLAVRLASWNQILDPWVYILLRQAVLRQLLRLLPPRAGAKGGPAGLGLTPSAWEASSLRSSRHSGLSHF

- Ki [1]: > 17.4 µM
- Ki [2]: 0.00045 ± 0.00026 µM
- IC50 [3]: 0.02 ± 0.024 µM
- IC50 [4]: 0.002 µM
- Ki [5]: 0.261 ± 0.108 µM
- IC50 [6]: 0.0022 ± 0.0017 µM
- Ki [7]: > 12.7 µM
SMILES: CC(C)[C@@H](OCCOc1ccccc1)C(=O)N[C@@H](C)c1ccc(C(=O)O)cc1 [Example 1, 4-[(1S)-1-[[(2R)-3-methyl-2-(2-phenoxyethoxy)butanoyl]amino]ethyl]benzoic acid]
